In ChEMBL document CHEMBL6096667, “Design, synthesis and biological evaluation of biaryl amide derivatives as modulators of multi-drug resistance” (Eur J Med Chem, 2025):

Experiments:
[1] = molecular target: T1, ATP-dependent translocase ABCB1 (Homo sapiens, UniProt P08183); assay: Binding affinity to CM5 sensor chip-immobilized human P-gp assessed as dissociation constant by SPR analysis
[2] = molecular target: T1, ATP-dependent translocase ABCB1; assay: Inhibition of P-gp in human Paclitaxel-resistant A2780/T cells incubated for 48 hrs by Western blot analysis; format: cell-based; details: paclitaxel-resistant a2780/t cell, 10 µM
[3] = tested on: A2780/Taxol; assay: Inhibition of cell proliferation of human Paclitaxel-resistant A2780/T cells incubated for 48 hrs in presence of PTX by MTT assay; format: functional, cell-based
[4] = tested on: A2780/Taxol; assay: Reversal of paclitaxel resistance in human Paclitaxel-resistant A2780/T cells by MTT assay; format: functional, cell-based
[5] = tested on: A2780/Taxol; assay: Reversal of paclitaxel resistance in human Paclitaxel-resistant A2780/T cells assessed as reversal fold by measuring ratio of paclitaxel IC50 to paclitaxel IC50 in presence of test compound at 1 uM incubated for 48 hrs by MTT assay; format: functional
[6] = molecular target: T2, Broad substrate specificity ATP-binding cassette transporter ABCG2 (Homo sapiens, UniProt Q9UNQ0); assay: Inhibition of ABCG2 in human Paclitaxel-resistant A2780/T cells at high concentration incubated for 48 hrs by Western blot analysis; format: cell-based; details: paclitaxel-resistant a2780/t cell
T2 sequence (Q9UNQ0 whole entry): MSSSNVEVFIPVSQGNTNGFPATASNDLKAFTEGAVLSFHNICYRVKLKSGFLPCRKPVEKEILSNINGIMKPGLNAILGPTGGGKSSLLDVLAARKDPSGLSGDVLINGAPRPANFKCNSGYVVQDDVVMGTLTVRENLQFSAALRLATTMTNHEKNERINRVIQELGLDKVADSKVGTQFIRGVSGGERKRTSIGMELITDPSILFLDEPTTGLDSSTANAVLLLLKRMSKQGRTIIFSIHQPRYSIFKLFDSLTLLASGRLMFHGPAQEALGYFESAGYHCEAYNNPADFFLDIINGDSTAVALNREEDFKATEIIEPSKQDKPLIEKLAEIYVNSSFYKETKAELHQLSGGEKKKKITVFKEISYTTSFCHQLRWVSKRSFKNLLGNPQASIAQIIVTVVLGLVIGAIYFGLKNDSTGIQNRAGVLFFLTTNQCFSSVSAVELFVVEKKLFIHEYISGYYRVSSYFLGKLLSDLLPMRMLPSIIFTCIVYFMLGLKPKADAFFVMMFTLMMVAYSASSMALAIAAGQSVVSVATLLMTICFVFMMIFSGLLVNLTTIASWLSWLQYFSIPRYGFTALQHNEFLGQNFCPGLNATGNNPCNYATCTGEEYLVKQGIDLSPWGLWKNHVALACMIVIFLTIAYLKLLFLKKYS

[7] = molecular target: Multidrug resistance-associated protein 1 (Homo sapiens, UniProt P33527); assay: Inhibition of MRP1 in human Paclitaxel-resistant A2780/T cells at high concentration incubated for 48 hrs by Western blot analysis; format: cell-based; details: paclitaxel-resistant a2780/t cell
Sequence of Multidrug resistance-associated protein 1 (P33527 whole entry): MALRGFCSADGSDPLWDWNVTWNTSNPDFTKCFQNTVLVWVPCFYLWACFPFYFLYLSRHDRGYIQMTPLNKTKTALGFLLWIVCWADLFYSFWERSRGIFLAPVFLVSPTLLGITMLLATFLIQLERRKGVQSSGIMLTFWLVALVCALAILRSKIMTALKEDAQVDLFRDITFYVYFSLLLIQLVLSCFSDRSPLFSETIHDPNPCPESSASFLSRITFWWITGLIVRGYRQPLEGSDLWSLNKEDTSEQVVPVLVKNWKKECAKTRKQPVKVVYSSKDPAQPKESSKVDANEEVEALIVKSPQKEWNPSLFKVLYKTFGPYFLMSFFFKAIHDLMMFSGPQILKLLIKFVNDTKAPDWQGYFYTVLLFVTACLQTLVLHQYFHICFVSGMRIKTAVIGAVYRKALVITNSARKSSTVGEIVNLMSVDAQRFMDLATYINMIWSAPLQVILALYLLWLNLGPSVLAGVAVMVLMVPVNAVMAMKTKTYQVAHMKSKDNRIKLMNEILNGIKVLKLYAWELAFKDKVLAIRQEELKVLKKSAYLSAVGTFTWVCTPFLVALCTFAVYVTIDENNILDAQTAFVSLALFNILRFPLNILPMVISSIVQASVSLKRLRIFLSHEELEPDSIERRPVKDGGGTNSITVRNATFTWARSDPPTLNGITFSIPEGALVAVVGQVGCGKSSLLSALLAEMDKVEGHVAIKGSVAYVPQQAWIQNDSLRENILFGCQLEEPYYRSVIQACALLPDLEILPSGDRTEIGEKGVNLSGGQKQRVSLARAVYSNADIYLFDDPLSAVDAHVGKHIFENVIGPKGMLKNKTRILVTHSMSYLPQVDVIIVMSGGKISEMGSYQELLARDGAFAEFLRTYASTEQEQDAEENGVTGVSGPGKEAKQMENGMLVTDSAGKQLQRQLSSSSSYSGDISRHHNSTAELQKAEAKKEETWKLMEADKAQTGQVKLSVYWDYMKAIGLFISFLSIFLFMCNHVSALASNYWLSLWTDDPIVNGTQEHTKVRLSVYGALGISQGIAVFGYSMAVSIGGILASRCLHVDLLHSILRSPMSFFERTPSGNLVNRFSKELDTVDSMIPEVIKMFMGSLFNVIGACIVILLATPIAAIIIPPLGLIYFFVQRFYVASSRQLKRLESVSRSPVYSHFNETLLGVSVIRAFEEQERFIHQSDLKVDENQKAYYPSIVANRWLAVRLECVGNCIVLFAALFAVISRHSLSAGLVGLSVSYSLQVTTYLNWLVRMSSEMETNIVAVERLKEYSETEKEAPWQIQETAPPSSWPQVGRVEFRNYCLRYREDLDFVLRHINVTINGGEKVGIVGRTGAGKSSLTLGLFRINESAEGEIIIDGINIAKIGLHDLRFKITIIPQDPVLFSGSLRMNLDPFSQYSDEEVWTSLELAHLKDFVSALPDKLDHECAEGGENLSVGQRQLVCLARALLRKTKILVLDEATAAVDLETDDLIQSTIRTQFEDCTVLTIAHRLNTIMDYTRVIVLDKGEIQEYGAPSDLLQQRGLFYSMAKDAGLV

[8] = molecular target: T1, ATP-dependent translocase ABCB1; assay: Inhibition of P-gp-mediated drug efflux of Rh123 in human Paclitaxel-resistant A2780/T cells at 2 uM measured upto 120 mins by flow cytometry; format: cell-based; details: paclitaxel-resistant a2780/t cell, 2 h
[9] = Reversal of paclitaxel resistance in human CDDP-resistant A549 cells assessed as reversal fold by measuring ratio of paclitaxel IC50 to paclitaxel IC50 in presence of test compound by MTT assay; format: functional, CDDP-resistant A549 cell
[10] = tested on: A2780/Taxol; assay: Induction of intracellular Rh123 accumulation in human Paclitaxel-resistant A2780/T cells incubated for 4 hrs by flow cytometry; format: functional, cell-based; details: dose 0.5-2 µM
[11] = Reversal of paclitaxel resistance in human A2780/CDDP cells assessed as reversal fold by measuring ratio of paclitaxel IC50 to paclitaxel IC50 in presence of test compound by MTT assay; format: functional
[12] = tested on: A2780/Taxol; assay: Inhibition of cell proliferation of human Paclitaxel-resistant A2780/T cells at 1 uM incubated for 48 hrs in presence of PTX by MTT assay relative to control; format: functional
[13] = tested on: A2780/Taxol; assay: Inhibition of cell proliferation of human Paclitaxel-resistant A2780/T cells at 10 uM incubated for 48 hrs in presence of PTX by MTT assay relative to control; format: functional

T1 sequence (P08183 whole entry): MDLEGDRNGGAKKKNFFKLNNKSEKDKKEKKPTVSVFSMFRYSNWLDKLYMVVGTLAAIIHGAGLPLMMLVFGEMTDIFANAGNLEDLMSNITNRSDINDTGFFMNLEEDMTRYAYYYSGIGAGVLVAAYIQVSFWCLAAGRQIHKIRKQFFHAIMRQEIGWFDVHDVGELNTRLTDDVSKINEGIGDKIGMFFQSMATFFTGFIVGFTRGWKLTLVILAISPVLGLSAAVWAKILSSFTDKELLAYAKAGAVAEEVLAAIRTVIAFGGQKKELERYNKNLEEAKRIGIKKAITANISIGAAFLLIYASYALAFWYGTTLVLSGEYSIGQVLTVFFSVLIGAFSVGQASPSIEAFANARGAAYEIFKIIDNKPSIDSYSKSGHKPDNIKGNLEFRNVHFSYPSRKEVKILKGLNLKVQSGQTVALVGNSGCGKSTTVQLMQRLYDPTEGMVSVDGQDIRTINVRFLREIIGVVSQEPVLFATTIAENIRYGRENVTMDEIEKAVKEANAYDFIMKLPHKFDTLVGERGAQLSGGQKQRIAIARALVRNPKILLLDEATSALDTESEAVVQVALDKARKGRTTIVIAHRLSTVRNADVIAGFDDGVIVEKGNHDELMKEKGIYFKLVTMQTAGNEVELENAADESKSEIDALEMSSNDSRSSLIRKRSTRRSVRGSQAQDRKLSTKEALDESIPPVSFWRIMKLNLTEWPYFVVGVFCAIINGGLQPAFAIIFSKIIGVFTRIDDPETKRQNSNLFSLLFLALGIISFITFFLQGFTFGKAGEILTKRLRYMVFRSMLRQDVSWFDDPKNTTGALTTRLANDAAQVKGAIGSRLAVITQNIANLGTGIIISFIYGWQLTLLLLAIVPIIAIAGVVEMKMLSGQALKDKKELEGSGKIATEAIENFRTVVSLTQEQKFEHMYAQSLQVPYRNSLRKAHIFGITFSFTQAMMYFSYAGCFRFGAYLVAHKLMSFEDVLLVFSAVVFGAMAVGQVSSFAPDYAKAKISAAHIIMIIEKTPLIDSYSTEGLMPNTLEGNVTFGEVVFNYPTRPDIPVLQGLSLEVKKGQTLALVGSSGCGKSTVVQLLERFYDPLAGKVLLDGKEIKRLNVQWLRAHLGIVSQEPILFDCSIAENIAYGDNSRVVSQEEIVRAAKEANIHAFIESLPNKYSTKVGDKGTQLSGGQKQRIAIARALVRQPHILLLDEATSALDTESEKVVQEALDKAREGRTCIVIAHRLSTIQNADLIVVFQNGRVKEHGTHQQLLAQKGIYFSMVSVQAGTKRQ

SMILES: COc1cc(-c2ccc(CNC(=O)c3cn(C)c4ccccc34)nc2)cc(OC)c1OC
- Kd [1]: 798 nM
- inhibition (INH) [2]: Dose-dependent-effect
- IC50 [3]: > 50000 nM
- EC50 [4]: 88 nM
- Ratio IC50 [5]: 156
- inhibition (INH) [6]: Not_active
- inhibition (INH) [7]: Active
- inhibition (INH) [8]: Active
- Ratio IC50 [9]: 7
- Activity [10]: Dose-dependent-effect; Activity Was Observed Superior To Vrp
- Ratio IC50 [11]: 11
- inhibition at 1 µM [12]: 55%
- inhibition at 10 µM [13]: 88%
